What was measured:
[1] = system: Human leukemia (HL60) cells; assay: In vitro metabolism in human leukemia cells with and without rat liver S9; type: cell-based; conditions: for effect of metabolism by S9 on activity: 4 hr incubation with vs without rat liver S9, cells counted 3 days later (FIG. 2)
Method: FIG. 2 illustrates the in vitro metabolism of BTO-956, 964, 966, and 967 in human leukemia cells. In this experiments, human leukemia cells (HL60) were incubated for 4 hours in the presence of BTO-956, BTO-964, BTO-966 or BTO-967, with (closed symbols) and without (open symbols) rat liver microsome fraction S9. Following the 4 hr exposure to drug and S9, the cells were rinsed and replated at a density of 2×10^5 cells per ml, and counted 3 days later.
To test for either of these possibilities, the compounds, i.e., BTO-956, BTO-964, BTO-966 and BTO-967, were incubated with a microsomal enzyme fraction, referred to as S9.
Human leukemia (HL60) cells were used to evaluate drug metabolism. Exposure to the test article was performed in the presence and absence of S9, prepared from the liver of adult male rats given a single intraperitoneal injection of Arachlor 1254 (500 mg/kg). The S9 consisted of the 9000×G supernatant of liver homogenized in 0.25 M sucrose-100 mM phosphate buffer (pH 7.4) (Molecular Toxicology, Inc.). Cofactors were 1 mM NADP and 5 mM sodium isocitrate. On the day of exposure, cultures of cells, with or without the metabolism mixture, were incubated for 4 hours in RPMI containing 5% FBS and graded doses of BTO956, 964, 966, or 967. The test agents were prepared in serial dilutions from 10 mM stock solutions in DMSO yielding a dose range 100 μM, 50 μM, 25 μM, 10 μM and 5 μM concentrations and a final DMSO concentration of 1%. In each case, cells were maintained at 37° C. under 5 percent CO2 in air. The experiments were conducted in 6-well tissue culture plates (Falcon) with an initial seeding density of 2×10^6 cells per well in 2 ml aliquots. The test compounds were added immediately to the medium in duplicate cultures. Treatment solution was removed by a series of low-speed centrifugations to pellet the cells, followed by removal of the supernatant and resuspension of cells in fresh RPMI containing 10% FBS.

[2] = system: angiogenesis induced by hFGF-B in the CAM; assay: Chick chorioallantoic membrane (CAM) assay, 14C-proline incorporation into collagenous protein; type: in vivo, chick embryo; conditions: for effect in the CAM assay: summary of the two experiments
Method: BTO-964 [methyl 3,5-diiodo-4(4'-methoxyphenoxy) benzaldehyde], and BTO-967 [methyl 3,5-diiodo-4(4'-methoxyphenoxy)-thiobenzoate] were tested in the CAm assay. The endpoint of the CAM assay was a quantiative determination of basement membrane biosynthesis by measuring the incorporation of ^14 C-proline into Type IV collagenous protein.
The CAM assay involves the development of live chick embryos in Petri dishes under special sterile conditions. Therefore, only limited numbers of embryos can be used for evaluation of compounds in a single experiment. BTO-964 and BTO-967 was tested in separate assays. A known angiogenesis inhibitor, 2-methoxyestradiol (2-ME), was used as the positive control, and human fibroblast growth factor (hFGF) was used to induce angiogenesis in the CAM.
For testing, a minimum amount of acetone-methanol (1:1) was added to the test compounds for sterilization. The acetone-methanol mixture was then evaporated to dryness in a sterile hood. The compounds were dissolved in dimethyl sulfoxide (DMSO) first and then diluted with saline containing methylcellulose. The final concentrations were 2% DMSO and 0.5% methylcellulose. all test solutions were added to each CAM in […] aliquots.
Fresh fertile eggs were incubated for three days in a standard egg incubator. On Day 3, eggs were cracked under sterile conditions and embryos were placed in 20×100 mm plastic Petri dishes and cultivated at 37° C. in an embryo incubator with a water reservoir on the bottom shelf. Air was continuously bubbled into the water reservoir by using a small pump so that the humidity in the incubator was kept constant. Observations were made daily to ensure that all embryos were healthy. Dead or unhealthy embryos were removed from the incubator immediately to avoid contamination. On Day 9, a sterile silicone ring cup was placed on each CAM and 0.5 mCi of ^14 C-proline with or without the test compound plus 2.5 ng of hFGF dissolved in saline containing 0.5% methylcellulose was delivered into each ring cup in a sterile hood. 2-ME was tested in parallel to serve as a reference compound. After addition of test materials, the embryos were returned to the incubator and cultivation continued. On Day 12, all embryos were transferred to a cold room at 4-10° C.
Using the procedure outlined in Maragoudakis, et al., (1989) J. Pharm. Exp. Ther. 251:679-682, the embryos were placed on ice and a piece of CAM 10 mm in diameter was cut off under each ring cup and placed in a separate tube. To each tube was added 1.0 ml of phosphate-buffered saline (PBS, pH 7.3) containing 0.11 mg cycloheximide and 0.17 mg dipyridyl. The tubes were placed in a boiling water bath for 10 min and then cooled to room temperature. The PBS in each tube was discarded after centrifugation at 3000×G for 10 min. The CAM residue was washed once with 3 ml of 15% TCA and then three times with 3 ml of 5% TCA. Centrifugation was carried out as described above between each washing. At this point all non-protein bound radioactivity was removed, and the CAM containing the newly synthesized ^14 C-collagenous protein was suspended in 0.9 ml of 0.1 N NaOH and 1.1 ml of HEPES buffer at pH 7.4. The pH of the sample was neutralized with 0.8 N HCl, using phenol red as indicator.
To digest the ^14 C-collagenous protein, 7.5 units of collagenase and 500 nmol of calcium chloride in […] of HEPES buffer was added to the above samples, and mixtures were incubated at 37° C. for 4 h. The reaction was stopped by adding 1.0 ml of 20% TCA containing 5 mg of tannic acid into each tube. After vortex mixing, the samples were centrifuged at 3000×G for 10 min. An aliquot of the clear supernatant was taken for scintillation counting to quantitate the radiolabeled tripeptides corresponding to basement membrane collagen and other collagenous materials synthesized by the CAM from ^14 C-proline. The CAM pellets in each tube were solubilized in 0.5 ml of 1.0 N NaOH by boiling in a water bath for 5 min. […]

Structure (SMILES) | toxicity to HL60 cells ([1]; 4 hr exposure (FIG. 2)) | effect of metabolism by S9 on activity [1] | % Inhibition ([2]; 8.3 μg/CAM, BTO-964 experiment) [%] | 14C-Proline Incorporated into Collagenous Protein (cpm/mg protein) (mean ± S.E.) ([2]; 8.3 μg/CAM, BTO-964 experiment, control 11200 ± 829) [cpm/mg_protein] | % Inhibition ([2]; 25 μg/CAM, BTO-964 experiment) [%] | 14C-Proline Incorporated into Collagenous Protein (cpm/mg protein) (mean ± S.E.) ([2]; 25 μg/CAM, BTO-964 experiment, control 11200 ± 829) [cpm/mg_protein] | % Inhibition ([2]; 75 μg/CAM, BTO-964 experiment) [%] | 14C-Proline Incorporated into Collagenous Protein (cpm/mg protein) (mean ± S.E.) ([2]; 75 μg/CAM, BTO-964 experiment, control 11200 ± 829) [cpm/mg_protein] | effect in the CAM assay [2] | % Inhibition ([2]; 8.3 μg/CAM, BTO-967 experiment) [%] | 14C-Proline Incorporated into Collagenous Protein (cpm/mg protein) (mean ± S.E.) ([2]; 8.3 μg/CAM, BTO-967 experiment, control 6300 ± 696) [cpm/mg_protein] | % Inhibition ([2]; 25 μg/CAM, BTO-967 experiment) [%] | 14C-Proline Incorporated into Collagenous Protein (cpm/mg protein) (mean ± S.E.) ([2]; 25 μg/CAM, BTO-967 experiment, control 6300 ± 696) [cpm/mg_protein] | % Inhibition ([2]; 75 μg/CAM, BTO-967 experiment) [%] | 14C-Proline Incorporated into Collagenous Protein (cpm/mg protein) (mean ± S.E.) ([2]; 75 μg/CAM, BTO-967 experiment, control 6300 ± 696) [cpm/mg_protein]
COc1ccc(Oc2c(I)cc(C=O)cc2I)cc1 [BTO-964, 3,5-Diiodo-4-(4'-methoxyphenoxy)benzadehyde] | more toxic to HL60 cells than is BTO-956 | more resistant to metabolic degradation | 15 | 9526 ± 1492 | 27 | 8121 ± 1096 | 10 | 10076 ± 928 | antiangiogenic effect |  |  |  |  |  | 
COC(=S)c1cc(I)c(Oc2ccc(OC)cc2)c(I)c1 [BTO-967, methyl 3,5-diiodo-4-(4'-methoxyphenoxy)thiobenzoate] |  | activated to more cytotoxic products |  |  |  |  |  |  | antiangiogenic effect | 13 | 5222 ± 692 | 3 | 6165 ± 1288 | 11 | 5581 ± 1182

From patent US6169104A, “Di-aryl ethers and their derivatives as anti-cancer agents” (Large Scale Biology Corporation, priority 1998, dated 2001)
